According to paper PMC10247784, “Physiological activation of human and mouse bitter taste receptors by bile acids” (Communications Biology, 2023):

Tested on: HEK293T-Gα16gust44 cells transfected with empty vector (mock)
Test: Calcium imaging assay (FLIPR), empty vector control (mock)
Type: cell-based
Procedure: This set of bile acids was chosen because of their commercial availability in high purities, their diversity within the class of bile acids and their previous detection and quantitation in human blood. Stock solutions were prepared in DMSO.
As basal growth medium for the HEK293T-Gα16gust44 cell line[17],[59] served Dulbecco’s modified eagle medium (DMEM) (Thermo Fisher Scientific, Darmstadt, Germany) supplemented with 10 % fetal bovine serum (Sigma-Aldrich, Steinheim, Germany), 2 mM L-glutamine (Sigma-Aldrich, Steinheim, Germany), 100 units/ml penicillin (Sigma Aldrich, Steinheim, Germany) and 100 µg/ml streptomycin (Sigma Aldrich, Steinheim, Germany). Growth conditions were 37 °C, 5 % CO2 and saturated air-humidity[60].
HEK293T-Gα16gust44 cells were seeded on poly-D-lysine (10 µg/ml) coated 96-well plates to reach a confluence of 40-60 % the next day. For transient transfection 150 ng of plasmid DNA containing the receptor of interest and 0.3 µl lipofectamine 2000 (Thermo Fisher Scientific, Darmstadt, Germany) per well were used and transfection took place according to the manual of lipofectamine 2000. […] The empty vector DNA (mock) was transfected as negative control[14],[41].
Cells were loaded using the calcium-sensitive fluorescent dye Fluo-4-AM (Abcam, Cambridge, Great Britain) in the presence of 2.5 mM probenecid (Sigma-Aldrich, Steinheim, Germany) the day after transfection[13],[41]. 1 h after loading, cells were washed with C1 buffer using a BioTek Cell Washer, incubated in the dark for half an hour and washed again. For automated agonist application and measurement of fluorescence changes, a FLIPR^TETRA device (Molecular Devices, San José, United States) was used. Viability of cells was tested by application of 100 nM Somatostatin 14 (Bachem, Bubendorf, Switzerland)[42].
Measured data were negative control corrected by subtracting the signal of the mock-transfected cells and exported to Microsoft Excel using the FLIPR software ScreenWorks 4.2. In Microsoft Excel software, standardization of maximum fluorescence intensities to the basal fluorescence and normalization to the buffer-only control was done to calculate the relative fluorescence changes (ΔF/F).
Initial screening experiments performed in duplicate wells were confirmed by at least one replication and representative traces were selected for display. All dose-response relationships were determined by three independent experiments (biological replicates) performed in duplicates (technical replicates). Threshold concentrations, defined as lowest substance concentrations leading to statistically significant elevated fluorescence changes in receptor-transfected cells compared with empty vector-transfected cells, were determined using SigmaPlot with Student’s t-test to evaluate statistical significance (p < 0.01).

[1] = Mock (sheet Tas2r144), conc. 0,01 mM
[2] = Mock (sheet Tas2r144), conc. 0,1 mM
[3] = Mock (sheet Tas2r144), conc. 0,03 mM
[4] = Mock (sheet Tas2r144), conc. 0,003 mM
[5] = Mock, sheet TAS2R4, conc. 0,01 mM
[6] = Mock, sheet TAS2R4, conc. 0,1 mM
[7] = Mock, sheet TAS2R4, conc. 0,03 mM
[8] = Mock, sheet TAS2R4, conc. 0,001 mM
[9] = Mock, sheet TAS2R14, conc. 0,01 mM
[10] = Mock, sheet TAS2R14, conc. 0,001 mM
[11] = Mock, sheet TAS2R14, conc. 0,003 mM
[12] = Mock, sheet TAS2R46, conc. 0,01 mM
[13] = Mock, sheet TAS2R46, conc. 0,1 mM
[14] = Mock, sheet TAS2R46, conc. 0,03 mM
[15] = Mock, sheet TAS2R46, conc. 0,001 mM
[16] = Mock, sheet TAS2R46, conc. 0,003 mM
[17] = Mock, sheet Tas2r108, conc. 0,01 mM
[18] = Mock, sheet Tas2r108, conc. 0,1 mM
[19] = Mock, sheet Tas2r108, conc. 0,03 mM
[20] = Mock, sheet Tas2r108, conc. 0,001 mM
[21] = Mock, sheet Tas2r108, conc. 0,003 mM
[22] = conc. 0,01 mM, Mock (sheet TAS2R1)
[23] = conc. 0,03 mM, Mock (sheet TAS2R1)
[24] = conc. 0,001 mM, Mock (sheet TAS2R1)
[25] = conc. 0,003 mM, Mock (sheet TAS2R1)

## C[C@H](CCC(=O)NCCS(=O)(=O)O)[C@H]1CC[C@H]2[C@@H]3[C@H](O)C[C@@H]4C[C@H](O)CC[C@]4(C)[C@H]3C[C@H](O)[C@]12C [Taurocholic Acid, taurocholic acid]
Conc. 0,01 mM, Mock (sheet TAS2R39)
  Δ F/F: -0.01563
Conc. 0,1 mM, Mock (sheet TAS2R39)
  Δ F/F: -0.02822
Conc. 0,03 mM, Mock (sheet TAS2R39)
  Δ F/F: -0.0235
Conc. 0,3 mM, Mock (sheet TAS2R39)
  Δ F/F: -0.04268
Conc. 0,001 mM, Mock (sheet TAS2R39)
  Δ F/F: -0.0133
Conc. 1 mM, Mock (sheet TAS2R39)
  Δ F/F: -0.07998
Conc. 0,003 mM, Mock (sheet TAS2R39)
  Δ F/F: -0.01654
Mock (sheet Tas2r123), conc. 0,01 mM
  Δ F/F: -0.001211
Mock (sheet Tas2r123), conc. 0,1 mM
  Δ F/F: -8.418e-5
Mock (sheet Tas2r123), conc. 0,03 mM
  Δ F/F: -0.0003225
Mock (sheet Tas2r123), conc. 0,3 mM
  Δ F/F: -0.001149
Mock (sheet Tas2r123), conc. 0,001 mM
  Δ F/F: -0.001993
Mock (sheet Tas2r123), conc. 0,003 mM
  Δ F/F: -0.001321
[1]
  Δ F/F: 0.001108
[2]
  Δ F/F: 0.003486
[3]
  Δ F/F: 0.0001367
Mock (sheet Tas2r144), conc. 0,3 mM
  Δ F/F: -0.000351
[4]
  Δ F/F: -0.001298
[5]
  Δ F/F: -0.0002235
[6]
  Δ F/F: -0.0008729
[7]
  Δ F/F: 6.044e-5
Mock, sheet TAS2R4, conc. 0,3 mM
  Δ F/F: 0.0004439
[8]
  Δ F/F: -0.0007938
Mock, sheet TAS2R4, conc. 0,003 mM
  Δ F/F: -0.0007144
[9]
  Δ F/F: -0.01747
Mock, sheet TAS2R14, conc. 0,1 mM
  Δ F/F: -0.02159
Mock, sheet TAS2R14, conc. 0,03 mM
  Δ F/F: -0.01682
Mock, sheet TAS2R14, conc. 0,3 mM
  Δ F/F: -0.04976
[10]
  Δ F/F: -0.01145
Mock, sheet TAS2R14, conc. 1 mM
  Δ F/F: -0.08511
[11]
  Δ F/F: -0.01455
[12]
  Δ F/F: -0.0238
[13]
  Δ F/F: -0.03213
[14]
  Δ F/F: -0.02754
Mock, sheet TAS2R46, conc. 0,3 mM
  Δ F/F: -0.04297
[15]
  Δ F/F: -0.01362
Mock, sheet TAS2R46, conc. 1 mM
  Δ F/F: -0.07821
[16]
  Δ F/F: -0.02261
[17]
  Δ F/F: -0.02048
[18]
  Δ F/F: -0.02439
[19]
  Δ F/F: -0.01669
Mock, sheet Tas2r108, conc. 0,3 mM
  Δ F/F: -0.04405
[20]
  Δ F/F: -0.01481
Mock, sheet Tas2r108, conc. 1 mM
  Δ F/F: -0.07176
[21]
  Δ F/F: -0.01975
Mock, sheet Tas2r117, conc. 0,01 mM
  Δ F/F: 0.0004005
Mock, sheet Tas2r117, conc. 0,1 mM
  Δ F/F: 0.0008049
Mock, sheet Tas2r117, conc. 0,03 mM
  Δ F/F: 0.000104
Mock, sheet Tas2r117, conc. 0,3 mM
  Δ F/F: -0.0008737
Mock, sheet Tas2r117, conc. 0,0003 mM
  Δ F/F: -0.0001935
Mock, sheet Tas2r117, conc. 0,001 mM
  Δ F/F: -0.001035
Mock, sheet Tas2r117, conc. 0,003 mM
  Δ F/F: -0.0005321
[22]
  Δ F/F: -0.002439
conc. 0,1 mM, Mock (sheet TAS2R1)
  Δ F/F: -0.002601
[23]
  Δ F/F: -0.002464
conc. 0,3 mM, Mock (sheet TAS2R1)
  Δ F/F: -0.001298
[24]
  Δ F/F: -0.001546
[25]
  Δ F/F: -0.002596

## C[C@H](CCC(=O)NCCS(=O)(=O)O)[C@H]1CC[C@H]2[C@@H]3CC[C@@H]4C[C@H](O)CC[C@]4(C)[C@H]3CC[C@]12C [Taurolithocholic Acid, taurolithocholic acid]
[1]
  Δ F/F: 0.0005692
[2]
  Δ F/F: 0.004595
[3]
  Δ F/F: 0.0003601
Mock (sheet Tas2r144), conc. 0,00003 mM
  Δ F/F: 0.006114
Mock (sheet Tas2r144), conc. 0,0001 mM
  Δ F/F: 0.006504
Mock (sheet Tas2r144), conc. 0,0003 mM
  Δ F/F: 0.0008548
Mock (sheet Tas2r144), conc. 0,001 mM
  Δ F/F: 0.004624
[4]
  Δ F/F: 0.001997
[5]
  Δ F/F: -0.008514
[6]
  Δ F/F: -0.00794
[7]
  Δ F/F: -0.01099
Mock, sheet TAS2R4, conc. 0,000001 mM
  Δ F/F: -0.003137
Mock, sheet TAS2R4, conc. 0,000003 mM
  Δ F/F: -0.007155
Mock, sheet TAS2R4, conc. 0,00001 mM
  Δ F/F: -0.00504
Mock, sheet TAS2R4, conc. 0,00003 mM
  Δ F/F: -0.003977
Mock, sheet TAS2R4, conc. 0,0001 mM
  Δ F/F: -0.003234
Mock, sheet TAS2R4, conc. 0,0003 mM
  Δ F/F: -0.004056
[8]
  Δ F/F: -0.007019
[9]
  Δ F/F: -0.03147
Mock, sheet TAS2R14, conc. 0,00001 mM
  Δ F/F: -0.004277
Mock, sheet TAS2R14, conc. 0,00003 mM
  Δ F/F: -0.0006944
Mock, sheet TAS2R14, conc. 0,0001 mM
  Δ F/F: -0.01329
Mock, sheet TAS2R14, conc. 0,0003 mM
  Δ F/F: -0.01832
[10]
  Δ F/F: -0.01976
[11]
  Δ F/F: -0.0246
[12]
  Δ F/F: -0.02971
[13]
  Δ F/F: -0.009753
[14]
  Δ F/F: -0.03052
Mock, sheet TAS2R46, conc. 0,0001 mM
  Δ F/F: -0.0128
Mock, sheet TAS2R46, conc. 0,0003 mM
  Δ F/F: -0.01683
[15]
  Δ F/F: -0.02076
[16]
  Δ F/F: -0.0306
[17]
  Δ F/F: -0.02695
[18]
  Δ F/F: -0.01465
[19]
  Δ F/F: -0.03132
Mock, sheet Tas2r108, conc. 0,00001 mM
  Δ F/F: -0.01948
Mock, sheet Tas2r108, conc. 0,00003 mM
  Δ F/F: -0.01658
Mock, sheet Tas2r108, conc. 0,0001 mM
  Δ F/F: -0.01596
Mock, sheet Tas2r108, conc. 0,0003 mM
  Δ F/F: -0.01689
[20]
  Δ F/F: -0.02887
[21]
  Δ F/F: -0.03792
[22]
  Δ F/F: 0.0009651
[23]
  Δ F/F: -0.0002852
conc. 0,000001 mM, Mock (sheet TAS2R1)
  Δ F/F: 0.0003466
conc. 0,000003 mM, Mock (sheet TAS2R1)
  Δ F/F: 0.0002774
conc. 0,00001 mM, Mock (sheet TAS2R1)
  Δ F/F: -0.0001438
conc. 0,00003 mM, Mock (sheet TAS2R1)
  Δ F/F: 0.0007699
conc. 0,0001 mM, Mock (sheet TAS2R1)
  Δ F/F: -0.00173
conc. 0,0003 mM, Mock (sheet TAS2R1)
  Δ F/F: 0.00111
[24]
  Δ F/F: 0.001414
[25]
  Δ F/F: -0.000959
